According to BindingDB's records for doi:10.1016/j.bioorg.2014.11.005 (Charles University In Prague, 2015):

Experiments:
[1] = target: Carboxylic ester hydrolase (Equus caballus, UniProt Q9N1N9); experiment: Ellman's Method
Acetylcholinesterase = Acetylcholinesterase (Electrophorus electricus, UniProt O42275); experiment: Ellman's Method
Acetylcholinesterase, sequence (O42275 whole entry): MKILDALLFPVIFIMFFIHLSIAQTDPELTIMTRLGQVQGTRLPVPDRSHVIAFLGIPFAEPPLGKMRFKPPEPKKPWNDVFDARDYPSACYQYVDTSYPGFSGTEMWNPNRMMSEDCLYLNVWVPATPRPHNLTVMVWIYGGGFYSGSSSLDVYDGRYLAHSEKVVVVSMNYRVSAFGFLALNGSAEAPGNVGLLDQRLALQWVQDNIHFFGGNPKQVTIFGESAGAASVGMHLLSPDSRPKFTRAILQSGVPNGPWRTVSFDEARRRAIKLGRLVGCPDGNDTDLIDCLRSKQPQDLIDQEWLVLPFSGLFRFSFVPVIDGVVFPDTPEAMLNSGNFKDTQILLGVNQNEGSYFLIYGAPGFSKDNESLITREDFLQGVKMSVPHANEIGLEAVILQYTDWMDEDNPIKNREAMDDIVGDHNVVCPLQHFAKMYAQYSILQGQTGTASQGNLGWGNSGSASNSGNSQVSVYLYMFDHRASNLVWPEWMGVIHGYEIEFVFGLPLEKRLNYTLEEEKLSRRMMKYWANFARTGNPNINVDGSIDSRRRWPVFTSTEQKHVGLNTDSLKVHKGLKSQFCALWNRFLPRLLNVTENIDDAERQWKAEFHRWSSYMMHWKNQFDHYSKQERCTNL

Carboxylic ester hydrolase, sequence (Q9N1N9 whole entry): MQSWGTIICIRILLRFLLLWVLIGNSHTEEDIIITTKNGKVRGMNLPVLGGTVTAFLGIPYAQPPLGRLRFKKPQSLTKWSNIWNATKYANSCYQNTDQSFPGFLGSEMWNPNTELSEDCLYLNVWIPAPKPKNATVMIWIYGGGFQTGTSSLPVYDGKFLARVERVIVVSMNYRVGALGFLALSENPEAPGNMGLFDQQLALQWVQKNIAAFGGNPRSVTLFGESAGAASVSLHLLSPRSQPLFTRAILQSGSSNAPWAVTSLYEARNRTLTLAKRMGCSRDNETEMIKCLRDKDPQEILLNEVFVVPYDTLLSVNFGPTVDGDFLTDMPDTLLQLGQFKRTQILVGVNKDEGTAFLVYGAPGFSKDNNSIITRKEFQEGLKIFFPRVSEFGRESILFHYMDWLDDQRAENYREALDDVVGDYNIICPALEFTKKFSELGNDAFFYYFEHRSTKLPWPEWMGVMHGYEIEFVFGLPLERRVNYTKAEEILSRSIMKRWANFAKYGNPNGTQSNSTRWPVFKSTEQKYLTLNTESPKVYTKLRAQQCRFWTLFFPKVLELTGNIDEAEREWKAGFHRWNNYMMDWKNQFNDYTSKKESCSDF

Structure (SMILES)	IC50 [1] [µM]	IC50 (Acetylcholinesterase) [µM]
CCOP(=O)(OCC)Oc1ccc(Cl)cc1C(=O)Nc1ccc(C(F)(F)F)cc1 [4‐chloro‐2‐{[4‐ (trifluoromethyl)phenyl]carbamoyl}phenyl diethyl  phosphate (18)]	20.9	41.6
CCOP(=O)(OCC)Oc1cc(Cl)ccc1C(=O)Nc1ccc(Cl)c(Cl)c1 [5-chloro-2-[(3,4-dichlorophenyl)carbamoyl]phenyl diethyl phosphate (25)]	0.903	45.5
CCOP(=O)(OCC)Oc1cc(Cl)ccc1C(=O)Nc1cccc(Cl)c1 [5-chloro-2-[(3-chlorophenyl)carbamoyl]phenyl diethyl phosphate (19)]	3.68	41.1
CCOP(=O)(OCC)Oc1ccc(Br)cc1C(=O)Nc1ccc(Cl)c(Cl)c1 [4‐bromo‐2‐[(3,4‐dichlorophenyl)carbamoyl]phenyl  diethyl phosphate (4)]	49.6	55.2
CCOP(=O)(OCC)Oc1ccc(Cl)cc1C(=O)Nc1ccc(Br)cc1 [2‐[(4‐bromophenyl)carbamoyl]‐4‐chlorophenyl  diethyl phosphate (14)]	40.2	59.2
CCOP(=O)(OCC)Oc1ccc(Cl)cc1C(=O)Nc1cccc(Br)c1 [2‐[(3‐bromophenyl)carbamoyl]‐4‐chlorophenyl  diethyl phosphate (16)]	16.9	63.3
CCOP(=O)(OCC)Oc1cc(Cl)ccc1C(=O)Nc1cccc(F)c1 [5-chloro-2-[(3-fluorophenyl)carbamoyl]phenyl diethyl phosphate (21)]	11.5	60.2
CCOP(=O)(OCC)Oc1ccc(Br)cc1C(=O)Nc1cccc(C(F)(F)F)c1 [4‐bromo‐2‐{[3‐ (trifluoromethyl)phenyl]carbamoyl}phenyl diethyl  phosphate (5)]	14.3	46.1
CCOP(=O)(OCC)Oc1ccc(Br)cc1C(=O)Nc1ccc(F)cc1 [4‐bromo‐2‐[(4‐fluorophenyl)carbamoyl]phenyl  diethyl phosphate (9)]	22.7	53.7
CCOP(=O)(OCC)Oc1ccc(Br)cc1C(=O)Nc1cccc(Cl)c1 [4‐bromo‐2‐[(3‐chlorophenyl)carbamoyl]phenyl  diethyl phosphate (2)]	24.4	79.9
CCOP(=O)(OCC)Oc1cc(Cl)ccc1C(=O)Nc1ccc(C(F)(F)F)cc1 [5-chloro-2-{[4-(trifluoromethyl)phenyl]carbamoyl}phenyl diethyl phosphate (27)]	9.84	86.3
CCOP(=O)(OCC)Oc1ccc(Br)cc1C(=O)Nc1cccc(Br)c1 [4‐bromo‐2‐[(3‐bromophenyl)carbamoyl]phenyl diethyl  phosphate (7)]	18	70.3
CCOP(=O)(OCC)Oc1ccc(Cl)cc1C(=O)Nc1ccc(Cl)c(Cl)c1 [4‐chloro‐2‐[(3,4‐dichlorophenyl)carbamoyl]phenyl  diethyl phosphate (15)]	40.3	80.9
CCOP(=O)(OCC)Oc1ccc(Br)cc1C(=O)Nc1ccc(Br)cc1 [4‐bromo‐2‐[(4‐bromophenyl)carbamoyl]phenyl diethyl  phosphate (8)]	13	50.8
CCOP(=O)(OCC)Oc1cc(Cl)ccc1C(=O)Nc1cccc(Br)c1 [2-[(3-bromophenyl)carbamoyl]-5-chlorophenyl diethyl phosphate (20)]	1.77	35.4
CCOP(=O)(OCC)Oc1cc(Cl)ccc1C(=O)Nc1ccc(F)cc1 [5-chloro-2-[(4-fluorophenyl)carbamoyl]phenyl diethyl phosphate (22)]	4.43	80.8
CCOP(=O)(OCC)Oc1ccc(Cl)cc1C(=O)Nc1cccc(F)c1 [4‐chloro‐2‐[(3‐fluorophenyl)carbamoyl]phenyl  diethyl phosphate (12)]	31.6	61.1
CCOP(=O)(OCC)Oc1cc(Cl)ccc1C(=O)Nc1cccc(C(F)(F)F)c1 [5-chloro-2-{[3-(trifluoromethyl)phenyl]carbamoyl}phenyl diethyl phosphate (26)]	3.53	71.9
CCOP(=O)(OCC)Oc1ccc(Cl)cc1C(=O)Nc1cccc(C(F)(F)F)c1 [4‐chloro‐2‐{[3‐ (trifluoromethyl)phenyl]carbamoyl}phenyl diethyl  phosphate (17)]	24.8	51.5
CCOP(=O)(OCC)Oc1ccc(Br)cc1C(=O)Nc1ccc(C(F)(F)F)cc1 [4‐bromo‐2‐{[4‐ (trifluoromethyl)phenyl]carbamoyl}phenyl diethyl  phosphate (6)]	10.3	56.7
CCOP(=O)(OCC)Oc1ccc(Br)cc1C(=O)Nc1cccc(F)c1 [4‐bromo‐2‐[(3‐fluorophenyl)carbamoyl]phenyl  diethyl phosphate (1)]	68.3	69.8
CCOP(=O)(OCC)Oc1ccc(Cl)cc1C(=O)Nc1ccc(F)cc1 [4‐chloro‐2‐[(4‐fluorophenyl)carbamoyl]phenyl  diethyl phosphate (13)]	20.5	48.5
CCOP(=O)(OCC)Oc1cc(Cl)ccc1C(=O)Nc1ccc(Br)cc1 [2-[(4-bromophenyl)carbamoyl]-5-chlorophenyl diethyl phosphate (23)]	8.76	55.1
CCOP(=O)(OCC)Oc1ccc(Cl)cc1C(=O)Nc1ccc(Cl)cc1 [4‐chloro‐2‐[(4‐chlorophenyl)carbamoyl]phenyl  diethyl phosphate (11)]	42.1	60.9
CCOP(=O)(OCC)Oc1cc(Cl)ccc1C(=O)Nc1ccc(Cl)cc1 [5-chloro-2-[(4-chlorophenyl)carbamoyl]phenyl diethyl phosphate (24)]	5.01	60.9
CCOP(=O)(OCC)Oc1ccc(Cl)cc1C(=O)Nc1cccc(Cl)c1 [4‐chloro‐2‐[(3‐chlorophenyl)carbamoyl]phenyl  diethyl phosphate (10)]	28.1	64.3
CCOP(=O)(OCC)Oc1ccc(Br)cc1C(=O)Nc1ccc(Cl)cc1 [4‐bromo‐2‐[(4‐chlorophenyl)carbamoyl]phenyl  diethyl phosphate (3)]	19.9	45.5
